How the values were obtained:
[1] = test system: Npc1 gene-defective (Npc1-/-) mice; conditions: cited from earlier work
ACDase [2] = test: Western blot of ACDase protein expression in human fibroblasts; type: cell-based; conditions: 16 hours
Experimental: (§1) PMH from Npc1^+/+ and human Npc^+/+ control fibroblasts were treated with U18666A (2µg/ml) or HMβCD (2mM) for 16 hours. In some other cases, PMH from Npc1^-/- and Npc^-/- fibroblast from NPC patients were treated with HMβCD as above for control PMH.
(§2) Fibroblasts from NPC patients were transfected with cDNA to overexpress ACDase (ASAH1) (SEQ ID NO: 5; MGC Human ASAH1 Sequence-Verified cDNA Accession: BC016481 Clone ID: 3923451) commercially purchased from GE Dharmacon. Transfection was performed using Lipofectamine2000 (Invitrogen). Briefly, 250000 fibroblasts were incubated with the transfection mixtures containing 250ng of the sobrexpression ACDase vector or the scrambled control-GFP vector. Cells were assayed 48 h after transfection for mRNA and protein levels. SEQ ID NO: 5 >ENA|BC016481|BC016481.1 Homo sapiens N-acylsphingosine amidohydrolase (acid ceramidase) 1, mRNA (cDNA clone MGC:9327 IMAGE:3923451), complete cds. [formula] [formula] [formula]
(§3) 100mg of liver were homogenized with a pestle homogenizer in 1ml of homobuffer (70mM saccharose, 220mM mannitol, 2mM Tris-HCI pH 7.4, 0,1mM EDTA, 0.1% fatty acid free BSA) supplemented with protease and phosphatase inhibitors (Roche). Liver homogenates were diluted 4 times with RIPA lysis buffer (Sigma) with anti-proteases and anti-phosphatases. Cells were washed with PBS and lysed with ice-cold RIPA lysis buffer supplemented with protease and phosphatase inhibitors. Samples were incubated 15min at 4°C, vortexed and spinned down for 5min at 10000rpm. All supernatants were collected and quantified for protein concentration using Quick-Bradford reagent (Bio-Rad) and 20-50µg of protein were subjected to 4-12% SDS-polyacrylamide gel electrophoresis (SDS-PAGE) (Bio-Rad, XT-Criterion). Proteins were electrotransferred at 4°C onto Hybond ECL nitrocellulose membranes (Amersham) and 5% BSA solution in TBS-Tween was used to block the membranes for 1h at room temperature. […] Images were digitally captured by LAS4000 (GE Healthcare) and optical density was analyzed with ImageJ software.

STARD1 [3] = test: Western blot of STARD1 protein expression in human fibroblasts; type: cell-based; conditions: 16 hours
Experimental: as §1, §2, §3

NPC child patients = conditions: intravenous instillation 2500 mg/kg per time, 1 to 3 times per week, more than 1 year; cited from earlier work
ACDase [4] = test: Western blot of ACDase protein expression in primary mouse hepatocytes; type: cell-based; conditions: 16 hours
Experimental: as §1
(§4) 100mg of liver were homogenized with a pestle homogenizer in 1ml of homobuffer (70mM saccharose, 220mM mannitol, 2mM Tris-HCI pH 7.4, 0,1mM EDTA, 0.1% fatty acid free BSA) supplemented with protease and phosphatase inhibitors (Roche). Liver homogenates were diluted 4 times with RIPA lysis buffer (Sigma) with anti-proteases and anti-phosphatases. Cells were washed with PBS and lysed with ice-cold RIPA lysis buffer supplemented with protease and phosphatase inhibitors. Samples were incubated 15min at 4°C, vortexed and spinned down for 5min at 10000rpm. All supernatants were collected and quantified for protein concentration using Quick-Bradford reagent (Bio-Rad) and 20-50µg of protein were subjected to 4-12% SDS-polyacrylamide gel electrophoresis (SDS-PAGE) (Bio-Rad, XT-Criterion). Proteins were electrotransferred at 4°C onto Hybond ECL nitrocellulose membranes (Amersham) and 5% BSA solution in TBS-Tween was used to block the membranes for 1h at room temperature. Membranes were incubated overnight with the following primary antibodies: anti-PDI (Cell Signaling, 24465), anti-CHOP (Cell Signaling, 2895S), anti-Phospho eiF2A (Cell Signaling, 9721S), anti-eiF2A (Cell Signaling, 9722) and anti-STARD1 (Abcam, ab58013), anti-BIP (Stressgen, SPA826), anti-XBP1 (Santa Cruz, CS-8015) and anti-Mln64 (Santa Cruz SC-292868), ACDAse (Sigma, SAB3500293), LRH-1 (Santa Cruz, Cs-393369) and anti-β-Actin HRP-conjugated (Sigma, A3854). Membranes were thoroughly washed with TBS-Tween and incubated for 45min with their respective HRP-conjugated secondary antibodies. Pierce ECL Western Blotting Substrate (Thermo Scientific) was used to develop the membranes. Images were digitally captured by LAS4000 (GE Healthcare) and optical density was analyzed with ImageJ software.

PMH from Npc1-/- mice = test: Filipin and cytochrome c co-staining, confocal microscopy (mitochondrial cholesterol); type: cell-based, mouse; conditions: HMβCD 2mM, 16 hours
Experimental: (§5) PMH were isolated by collagenase perfusion at a flow rate of 7-9ml/min and cultured at a density of 2×10^5 cells in 12-well plates coated with rat tail collagen. Hepatocytes were cultured in DMEM/F12 culture media (Gibco, 21331-020) supplemented with 10% FBS for the first 3 hours post isolation, together with 10.000U/ml Penicillin-Streptomycin (Gibco, 15140-122), 200mM L-Glutamine (Gibco, 25030-024), 7.5mM D-Glucose (Sigma, G6152) and 150mM Hepes pH 7.4 (Sigma,). For subsequent treatments, FBS was replaced for 1mM methionine (Sigma, M5308).
as §1
(§6) PMH were fixed for 15min with 3.7% paraformaldehyde and permeabilized for 5min with 0.2% saponin dissolved in 0.5% BSA-fatty acid free (FAF) in PBS commercial buffer. Cells were blocked with 1% BSA FAF for 15minutes. Cytochrome c (Cytc) (BD Pharmigen, #556432) and Lamp2 (Abcam, #ab13524) primary antibodies were incubated overnight in BSA 1% followed by a secondary antibody for 1 hour at room temperature in BSA 0.1%. Filipin ([…], Sigma) was added during the secondary antibody incubation and the following steps were performed in the dark. Stained samples were embedded in fluoromont (Sigma) and digital images were taken in a Leica SP2 laser scanning confocal microscope equipped with UV excitation, an argon laser, a 633/1.32 OIL PH3 CS objective and a confocal pinhole set at 1 Airy unit. All the confocal images shown were single optical sections. Scale bar represents 25 µm. Percentage of cholesterol mass containing mitochondria was analyzed with the Colocalization nBits nimages plugin (Confocal Microscopy Unit, Facultad de Medicina, Universidad de Barcelona) in the ImageJ Software in 5 consecutive images of each experimental condition.

PMH from Npc1+/+ mice [5] = test: as above; type: cell-based, mouse; conditions: 16 hours
Experimental: as §5, §1, §6

[6] = test system: Npc-/- fibroblasts from NPC patients; test: as above; type: cell-based, human; conditions: HMβCD 2mM, 16 hours
Experimental: (§7) Fibroblasts from patients with NPC disease used have been previously described (Torres et al., Redox Biol. 2017 Apr;11:60-72). Briefly, cultured human skin fibroblasts from control individuals (HSF; GM5659D) and patients with NPC disease were a generous gift from Thierry Levade, Laboratoire de Biochimie Metabolique, Institut Federatif de Biologie (CHU Toulouse, France) or obtained from Coriell Institute for Medical Research (GM03123, NJ, USA) and were grown at 37°C in 5% CO2. DMEM (Gibco) culture medium was supplemented with 10% fetal bovine serum (FBS, Gibco, 10-270-106) and 10.000U/ml Penicillin-Streptomycin (Gibco, 15140-122).
PMH from Npc1^+/+ and human Npc^+/+ control fibroblasts were treated with U18666A (2µg/ml) or HMβCD (2mM) for 16 hours. In some other cases, PMH from Npc1^-/- and Npc^-/- fibroblast from NPC patients were treated with HMβCD as above for control PMH. […]
PMH were fixed for 15min with 3.7% paraformaldehyde and permeabilized for 5min with 0.2% saponin dissolved in 0.5% BSA-fatty acid free (FAF) in PBS commercial buffer. […] Percentage of cholesterol mass containing mitochondria was analyzed with the Colocalization nBits nimages plugin (Confocal Microscopy Unit, Facultad de Medicina, Universidad de Barcelona) in the ImageJ Software in 5 consecutive images of each experimental condition.

Npc+/+ fibroblasts = test: as above; type: cell-based, human; conditions: HMβCD 2mM, 16 hours, co-treatment with U18666A; Npc+/+ fibroblasts from control patients
Experimental: as §7, §1
(§8) PMH were fixed for 15min with 3.7% paraformaldehyde and permeabilized for 5min with 0.2% saponin dissolved in 0.5% BSA-fatty acid free (FAF) in PBS commercial buffer. Cells were blocked with 1% BSA FAF for 15minutes. […] Percentage of cholesterol mass containing mitochondria was analyzed with the Colocalization nBits nimages plugin (Confocal Microscopy Unit, Facultad de Medicina, Universidad de Barcelona) in the ImageJ Software in 5 consecutive images of each experimental condition.

STARD1 [7] = test: Western blot of STARD1 protein expression in primary mouse hepatocytes; type: cell-based; conditions: 16 hours
Experimental: as §1, §4

MLN64 [8] = test: Western blot of MLN64 protein expression in human fibroblasts; type: cell-based; conditions: HMβCD 2mM, 16 hours, co-treatment with U18666A; control Npc+/+ fibroblasts
Experimental: as §1
Fibroblasts from NPC patients were transfected with cDNA to overexpress ACDase (ASAH1) (SEQ ID NO: 5; MGC Human ASAH1 Sequence-Verified cDNA Accession: BC016481 Clone ID: 3923451) commercially purchased from GE Dharmacon. Transfection was performed using Lipofectamine2000 (Invitrogen). Briefly, 250000 fibroblasts were incubated with the transfection mixtures containing 250ng of the sobrexpression ACDase vector or the scrambled control-GFP vector. Cells were assayed 48 h after transfection for mRNA and protein levels. […]
100mg of liver were homogenized with a pestle homogenizer in 1ml of homobuffer (70mM saccharose, 220mM mannitol, 2mM Tris-HCI pH 7.4, 0,1mM EDTA, 0.1% fatty acid free BSA) supplemented with protease and phosphatase inhibitors (Roche). […] All supernatants were collected and quantified for protein concentration using Quick-Bradford reagent (Bio-Rad) and 20-50µg of protein were subjected to 4-12% SDS-polyacrylamide gel electrophoresis (SDS-PAGE) (Bio-Rad, XT-Criterion). […] Images were digitally captured by LAS4000 (GE Healthcare) and optical density was analyzed with ImageJ software.

MLN64 [9] = test: Western blot of MLN64 protein expression in primary mouse hepatocytes; type: cell-based; conditions: HMβCD 2mM, 16 hours, co-treatment with U18666A; PMH from Npc1+/+ mice
Experimental: as §1, §3

ER stress markers = test: Western blot of ER stress markers in primary mouse hepatocytes; type: cell-based; conditions: incubation of Npc1+/+ PMH with U18666A
Experimental: as §1, §3

PMH from Npc1+/+ mice [10] = test: Filipin and Lamp2 co-staining, confocal microscopy (lysosomal cholesterol); type: cell-based, mouse; conditions: U18666A 2µg/ml, 16 hours
Experimental: as §5, §1, §8

[11] = HMβCD 2mM, co-treatment with U18666A, control Npc+/+ fibroblasts
[12] = HMβCD 2mM, Npc-/- fibroblasts from NPC patients, no U18666A
[13] = HMβCD 2mM, co-treatment with U18666A, PMH from Npc1+/+ mice
[14] = HMβCD 2mM, PMH from Npc1-/- mice, no U18666A
[15] = U18666A 2µg/ml, PMH from Npc1+/+ mice

CC(O)COC[C@H]1O[C@@H]2O[C@H]3[C@H](O)[C@@H](O)[C@@H](O[C@H]4[C@H](O)[C@@H](O)[C@@H](O[C@H]5[C@H](O)[C@@H](O)[C@@H](O[C@H]6[C@H](O)[C@@H](O)[C@@H](O[C@H]7[C@H](O)[C@@H](O)[C@@H](O[C@H]8[C@H](O)[C@@H](O)[C@@H](O[C@H]1[C@H](O)[C@H]2O)O[C@@H]8COCC(C)O)O[C@@H]7COCC(C)O)O[C@@H]6COCC(C)O)O[C@@H]5COCC(C)O)O[C@@H]4COCC(C)O)O[C@@H]3COCC(C)O (stereo partly drawn) [HMβCD, 2-hydroxypropyl-β-cyclodextrin]
improving effect, direct administration into the brain compared with systemic administration ([1]; directly administered into the brain, Npc1-/- mice): increased a few hundred times | medical state or survival ([1]; intravenously administered, Npc1-/- mice): effective in improving the medical state or prolonging survival | crossing of the blood brain barrier ([1]; mouse, in vivo): inability of HPBCD to cross the blood brain barrier | repression of ACDase induced by U18666A (ACDase [2]; [11]): reverse the increase of STARD1 and the repression of ACDase | expression levels of ACDase (ACDase [2]; [12]): exhibited the same changes induced by HMβCD | increase of STARD1 induced by U18666A (STARD1 [3]; [11]): reverse the increase of STARD1 | expression levels of STARD1 (STARD1 [3]; [12]): exhibited the same changes induced by HMβCD | nervous symptom (NPC child patients): saw no improvement | side effects (NPC child patients): severe side effects have been observed | splenomegaly and brain wave (NPC child patients): certain effect of reduction of splenomegaly and improvement in a brain wave | repression of ACDase induced by U18666A (ACDase [4]; [13]): reverse the increase of STARD1 and the repression of ACDase | expression levels of ACDase (ACDase [4]; [14]): exhibited the same changes induced by HMβCD | mitochondrial cholesterol increase (PMH from Npc1-/- mice): exhibited the same changes induced by HMβCD | U18666A-induced cholesterol accumulation and trafficking to mitochondria (PMH from Npc1+/+ mice [5]; [13]): prevented U18666A-induced cholesterol accumulation and trafficking to mitochondria | mitochondrial cholesterol increase [6]: exhibited the same changes induced by HMβCD | U18666A-induced cholesterol accumulation and trafficking to mitochondria (Npc+/+ fibroblasts): prevented U18666A-induced cholesterol accumulation and trafficking to mitochondria | increase of STARD1 induced by U18666A (STARD1 [7]; [13]): reverse the increase of STARD1 | expression levels of STARD1 (STARD1 [7]; [14]): exhibited the same changes induced by HMβCD | increased expression of MLN64 induced by U18666A (MLN64 [8]): prevented the increased expression of MLN64 | increased expression of MLN64 induced by U18666A (MLN64 [9]): prevented the increased expression of MLN64

CCN(CC)CCO[C@H]1CC[C@@]2(C)C(=CC[C@@H]3[C@@H]2CC[C@]2(C)C(=O)CC[C@@H]32)C1 [U18666A]
expression of ACDase (ACDase [2]; U18666A 2µg/ml, control Npc+/+ fibroblasts): decreased the expression of ACDase | STARD1 expression (STARD1 [3]; U18666A 2µg/ml, Npc+/+ fibroblasts): significantly increased STARD1 | expression of ACDase (ACDase [4]; [15]): decreased the expression of ACDase | accumulation of cholesterol in mitochondria (colocalization of filipin and CytC staining) (PMH from Npc1+/+ mice [5]; U18666A 2µg/ml, Npc1+/+ PMH): stimulated the accumulation of cholesterol in mitochondria | ER stress markers (ER stress markers): failed to induce ER stress markers | STARD1 expression (STARD1 [7]; [15]): significantly increased STARD1 | lysosomal cholesterol accumulation (filipin and Lamp2 staining) (PMH from Npc1+/+ mice [10]): significantly increased lysosomal cholesterol accumulation

From patent publication EP4014997A1, “STARD1 INHIBITORS FOR THE TREATMENT OF LYSOSOMAL DISORDERS” (Consejo Superior de Investigaciones Científicas (CSIC), priority 2020, dated 2022)
